Inconclusive results and toxic doses are left out.
Tested on: BDF1 mice, P388 leukemia ip, median survival T/C
Test: NCI In Vivo Anticancer Drug Screen. Data for tumor model P388 Leukemia (intraperitoneal) in B6D2F1 (BDF1) mice
Conditions: endpoint: median survival time, higher = longer survival
How it was run: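 Transplantable tumour in mice; compound vs vehicle dosing; survival scored; ratio of treated to control reported.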

| SMILES | T/C (dose: 50.0 mg/kg/injection, schedule: Q01DX001 (ip), vehicle: Klucel (hydroxypropylcellulose) (HPC)) | T/C (dose: 100.0 mg/kg/injection, schedule: Q01DX001 (ip), vehicle: Klucel (hydroxypropylcellulose) (HPC)) | T/C (dose: 200.0 mg/kg/injection, schedule: Q01DX001 (ip), vehicle: Klucel (hydroxypropylcellulose) (HPC)) | T/C (dose: 400.0 mg/kg/injection, schedule: Q01DX001 (ip), vehicle: Klucel (hydroxypropylcellulose) (HPC)) | T/C (dose: 3.13 mg/kg/injection, schedule: Q04DX003 (ip), vehicle: saline) | T/C (dose: 6.25 mg/kg/injection, schedule: Q04DX003 (ip), vehicle: saline) | T/C (dose: 12.5 mg/kg/injection, schedule: Q04DX003 (ip), vehicle: saline) |
| --- | --- | --- | --- | --- | --- | --- | --- |
| O=P1(N(CCCl)CCCl)NC(OOC2CCOP(=O)(N(CCCl)CCCl)N2)CCO1 (configuration not stated) | 200 % of control | 236 % of control | 272 % of control | 273 % of control |  |  |  |
| c1cc[n+]2c(c1)-c1cccc[n+]1CC2 |  |  |  |  | 100 % of control | 95 % of control | 100 % of control |
